Converted amounts (≈) assume the structure as drawn.
How the values were obtained:
[1] = molecular target: AcpS enzyme (Escherichia coli, UniProt P24224); test: Measurement of AcpS inhibition ([3H]acetyl-CoA incorporation into apo-ACP); format: biochemical; conditions: % activity vs blank-subtracted counts; for % AcpS activity @ 500 uM / remaining activity at 500 µM: test compound 500 uM; for activity at 50 µM / % AcpS activity at 50 uM: test compound 50 uM
Procedure: [^3H]Acetyl-CoA was mixed as 1 volume of Perkin Elmer NET290 radiolabeled stock (e.g. 0.1 mCi/ml, 3.7 Ci/mmol in Na-acetate, pH 4.5-5.0=27 μM) with 1.2 volumes of 1 mM unlabelled acetyl-CoA (Sigma). Trichloroacetic acid was prepared as a 10% w/v solution. Bovine serum albumin was prepared as a 25 mg/ml solution in water. DTT was prepared as a 50 mM solution in water.
• 1. A standard reaction contained the following in a total volume of 10 μl:
• 2. Tubes were incubated at RT. [^3H]acetyl-CoA was added last to start the reaction. To stop the reaction, 2 μl was removed to a 1.5-ml microfuge tube containing 800 μl cold 10% TCA. Up to four time points were collected for each reaction, e.g. at 5 min, 10 min, 30 min, and 60 min. • 3. 20 μl of 25 mg/ml BSA was added to each tube, mixed and incubated on ice for 10 min, then centrifuged at 12,000 g for 5 min to form a pellet. Supernatant was removed using P1000. • 4. Each pellet was washed twice with 800 μl of cold 10% TCA each time, then centrifuged at 12,000 g for 5 min after each wash. The supernatant was discarded. Each pellet was resuspended in 50 μl of formic acid. The suspension was transferred to a scintillation vial and radioactivity was measured in 2 ml of liquid scintillation cocktail.
The random (stochastic) error in scintillation counting is proportional to the square root of the counts (not dpm) accumulated in the counting period; i.e. 10% for 100, 3.3% for 1,000, 1% for 10,000, etc. Provided radioactive counts (dpm) are in the thousands, the assay provides useful data. Results are reported in terms of % activity with respect to the blank-subtracted counts for working substrate. A % activity of less than about 40% is indicative of AcpS enzyme inhibition by the test compound at that concentration.

[2] = test system: Methicillin-Resistant Staph. aureus (MRSA); test: MIC, NCCLS M7-A6 broth microdilution, MRSA; format: cell-based; conditions: 16 to 20 h, 35 degrees Celsius; for MIC: Staphylococcus aureus, MRSA
Procedure: (§1) Susceptibilities to the compounds were determined using the National Committee for Clinical Laboratory Standards (NCCLS) M7-A6 broth microdilution method. Cation-adjusted Mueller-Hinton broth (Ca^2+, 25 μg/mL; Mg^2+, 12.5 μg/mL) microdilution panels were prepared to contain antimicrobial doubling dilution concentrations of an appropriate range. DMSO (dimethylsulfoxide) controls were incorporated into the panel to mimic the quantity of DMSO used in dissolving some of the compounds at the higher concentrations. Each final panel well volume was 100 μL with a bacterial inoculum of 5×10^5 CFU (colony forming units)/mL of the relevant bacterium. Panels were read following 16 to 20 h of incubation at 35 degrees Celsius in ambient air. The MIC (minimum inhibitory concentration) was defined as the lowest concentration of antimicrobial inhibiting visible growth.

[3] = test system: E. coli D22; test: MIC, NCCLS M7-A6 broth microdilution, E. coli D22; format: cell-based; conditions: 35 degrees Celsius; for MIC E coli D22: 16 to 20 h; for MIC: Escherichia coli, D22, 16 to 20 h
Procedure: as §1

Chain of AcpS enzyme (P24224 whole entry): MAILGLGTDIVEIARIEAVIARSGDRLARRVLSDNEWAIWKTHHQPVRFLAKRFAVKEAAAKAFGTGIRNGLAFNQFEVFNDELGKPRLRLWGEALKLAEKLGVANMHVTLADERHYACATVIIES

SMILES | % AcpS activity @ 500 uM [1] [%] | MIC MRSA [2] [µM] | MIC E coli D22 [3] [µM] | activity at 50 µM [1] [%] | remaining activity at 500 µM [1] [%] | MIC [2] [µM] | MIC [3] [µM] | % AcpS activity at 50 uM [1] [%]
Cc1ccc(-c2cc(-c3nn[nH]n3)cc(-c3ccc(C)cc3-c3cccc(Cl)c3)c2)c(-c2cccc(Cl)c2)c1 [DNM0520] | 20.86 | 2 (≈ 1.09 µg/mL) | >125 | – | – | – | – | –
Clc1ccccc1-c1cc(-c2nnn[nH]2)sc1-c1ccccc1Cl [DNM0538, 5-(4,5-Bis(2-chlorophenyl)thiophen-2-yl)-1H-tetrazole] | – | – | – | 82.2 | 0.58 | 30 (≈ 11.2 µg/mL) | > 125 | –
Cc1ccc(-c2cc(-c3nnn[nH]3)sc2-c2ccc(C)cc2Cl)c(Cl)c1 [DNM0563, 5-(4,5-Bis(2-chloro-4-methylphenyl)thiophen-2-yl)-1H-tetrazole] | – | – | – | 15.1 | 0.56 | 8 (≈ 3.21 µg/mL) | 125 (≈ 50.2 µg/mL) | –
COc1c(C)cc(-c2cc(-c3nnn[nH]3)sc2-c2cc(C)c(OC)c(C)c2)cc1C [DNM0564, 5-(4,5-Bis(4-methoxy-3,5-dimethylphenyl)thiophen-2-yl)-1H-tetrazole] | – | – | – | 47.6 | 0.75 | 15 (≈ 6.31 µg/mL) | > 125 | –
Clc1ccc(Cc2sc(-c3nnn[nH]3)cc2-c2ccccc2-c2ccccc2)cc1 [DNM0588, 5-(4-(Biphenyl-2-yl)-5-(4-chlorobenzyl)thiophen-2-yl)-1H-tetrazole] | – | – | – | 2.67 | 0 | 8 (≈ 3.43 µg/mL) | – | –
c1ccc(Oc2ccccc2-c2cc(-c3nnn[nH]3)sc2-c2ccccc2Oc2ccccc2)cc1 [DNM0536, 5-(4,5-Bis(2-phenoxyphenyl)thiophen-2-yl)-1H-tetrazole] | – | – | – | 8.25 | 0.2 | 8 (≈ 3.91 µg/mL) | 125 (≈ 61.1 µg/mL) | –
Cc1ccccc1-c1cc(-c2nn[nH]n2)cc(-c2ccccc2C)c1 [DNM0529] | 0.16 | 30 (≈ 9.79 µg/mL) | >125 | – | – | – | – | 91.56
c1ccc(-c2cc(-c3nnn[nH]3)sc2-c2ccccc2-c2ccsc2)c(-c2ccsc2)c1 [DNM0559, 5-(4,5-Bis(2-(thiophen-3-yl)phenyl)thiophen-2-yl)-1H-tetrazole] | – | – | – | 7.01 | 0.5 | 2 (≈ 0.937 µg/mL) | > 125 | –
Brc1ccccc1-c1sc(-c2nnn[nH]2)cc1-c1ccccc1C1CCCC1 [DNM0571] | 0.11 | 8 (≈ 3.61 µg/mL) | >125 | – | – | – | – | 8.19
Cc1ccc(-c2ccc(-c3ccc(C)c4ccccc34)c(-c3nnn[nH]3)c2)c2ccccc12 [DNM0446, 5-(2,5-Bis(4-methylnaphthalen-1-yl)phenyl)-1H-tetrazole] | – | – | – | – | 25.4 | 4 (≈ 1.71 µg/mL) | > 125 | –
FC(F)(F)c1ccccc1-c1cc(-c2nnn[nH]2)sc1-c1ccccc1C(F)(F)F [DNM0549, 5-(4,5-Bis(2-(trifluoromethyl)phenyl)thiophen-2-yl)-1H-tetrazole] | – | – | – | 71.3 | 0.48 | 30 (≈ 13.2 µg/mL) | > 125 | –
Cc1cc(Cl)ccc1-c1cc(-c2nn[nH]n2)cc(-c2ccc(Cl)cc2C)c1 [DNM0457] | 0 | 8 (≈ 3.16 µg/mL) | 60 (≈ 23.7 µg/mL) | – | – | – | – | 1.56
CCc1ccccc1-c1cc(-c2nnn[nH]2)sc1-c1ccccc1CC [DNM0541, 5-(4,5-Bis(2-ethylphenyl)thiophen-2-yl)-1H-tetrazole] | – | – | – | 63.1 | 0.3 | 30 (≈ 10.8 µg/mL) | > 125 | –
Fc1ccc(-c2cc(-c3nn[nH]n3)cc(-c3ccc(F)c4ccccc34)c2)c2ccccc12 [DNM0539, 5-(3,5-Bis(4-fluoronaphthalen-1-yl)phenyl)-2H-tetrazole] | – | – | – | – | 39.4 | 8 (≈ 3.48 µg/mL) | > 125 | –
Fc1ccc(-c2cc(-c3nnn[nH]3)sc2Cc2ccc(Cl)cc2)c2ccccc12 [DNM0587, 5-(5-(4-Chlorobenzyl)-4-(4-fluoronaphthalen-1-yl)thiophen-2-yl)-1H-tetrazole] | – | – | – | 2.13 | 0 | 8 (≈ 3.37 µg/mL) | – | –

Source: US9012655B2, “Antimicrobial/adjuvant compounds and methods” (Denouamed, Inc., priority 2011, dated 2015)
